Experimental data from PubChem BioAssay (NCI).
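A five-concentration, 48-hour dose response in 96-well plates underlies each endpoint, interpolated linearly between surrounding concentrations. TGI marks complete inhibition of growth.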 Where a SMILES comes first, the peptide text is derived from it. [ ]: non-standard residue; d: D form. Ava = NCCCCC(=O)O; Mpa = O=C(O)CCS

Assays:
Experiment in all cases: NCI tumour cell line growth inhibition, 48 h
[1] = system: NCI/ADR-RES ovarian
[2] = system: ACHN renal
[3] = system: SK-MEL-28 melanoma
[4] = system: DU-145 prostate
[5] = system: HCC-2998 colon
[6] = system: NCI-H226 lung
[7] = system: OVCAR-5 ovarian
[8] = system: U251 CNS
[9] = system: SK-OV-3 ovarian
[10] = system: SNB-19 CNS

## COC(=O)C1(Cc2ccc3c(c2)CCC3)Cc2ccc3c(c2C1=O)CCC3 (stereo not given)
[1]
  TGI: 13.8 µM
[2]
  TGI: > 100 µM
[3]
  TGI: > 100 µM
[4]
  TGI: > 100 µM
[5]
  TGI: 44.5 µM
[6]
  TGI: > 87.2 µM
[7]
  TGI: > 100 µM
[8]
  TGI: > 69.6 µM
[9]
  TGI: > 100 µM
[10]
  TGI: > 100 µM

## Nc1nnc(N)n1N
[2]
  TGI: > 100 µM
[3]
  TGI: > 100 µM
[5]
  TGI: > 100 µM
[6]
  TGI: > 100 µM
[7]
  TGI: > 100 µM
[8]
  TGI: > 100 µM
[9]
  TGI: > 100 µM
[10]
  TGI: > 100 µM

## COc1ccc2c(c1)/C(=C\c1c(Cl)nc3n1CCS3)C(=O)N2
[1]
  TGI: 88.3 µM
[2]
  TGI: > 100 µM
[3]
  TGI: > 100 µM
[4]
  TGI: 72.5 µM
[5]
  TGI: 8.31 µM
[7]
  TGI: 74.1 µM
[8]
  TGI: 57.6 µM
[9]
  TGI: 66.9 µM
[10]
  TGI: > 100 µM

## O=[N+]([O-])c1ccc2c(c1)nc1n2C(c2c(F)cccc2F)SC1 (stereo not given)
[1]
  TGI: > 100 µM
[2]
  TGI: > 100 µM
[3]
  TGI: > 100 µM
[4]
  TGI: > 100 µM
[5]
  TGI: > 100 µM
[7]
  TGI: > 100 µM
[8]
  TGI: > 100 µM
[9]
  TGI: > 100 µM
[10]
  TGI: > 100 µM

## CC1=NNC(=O)C1C1(C(=O)O)CC(c2c[nH]c3ccccc23)=NC(=S)N1 (stereo not given)
[1]
  TGI: > 100 µM
[2]
  TGI: > 100 µM
[3]
  TGI: > 100 µM
[4]
  TGI: > 100 µM
[6]
  TGI: 85.8 µM
[7]
  TGI: > 100 µM
[8]
  TGI: 69.8 µM
[9]
  TGI: > 100 µM
[10]
  TGI: > 100 µM

## CC(NC(=O)CCS)C(=O)NC(C)C(=O)NC(Cc1c[nH]c2ccccc12)C(=O)NC(Cc1c[nH]cn1)C(=O)NC(CO)C(=O)NC(Cc1c[nH]c2ccccc12)C(=O)NCCCCC(=O)NC(C)C(=O)NC(CCC(N)=O)C(=O)NC(CCCCN)C(=O)NC(C)C(=O)NC(CCCNC(=N)N)C(=O)NC(CCCCN)C(N)=O (stereo not given) ([Mpa]AAWHSW[Ava]AQKARK-NH2; configuration not given here)
[1]
  TGI: > 100 µM
[2]
  TGI: > 100 µM
[3]
  TGI: > 100 µM
[4]
  TGI: > 100 µM
[6]
  TGI: > 100 µM
[7]
  TGI: > 100 µM
[8]
  TGI: > 100 µM
[9]
  TGI: > 100 µM
[10]
  TGI: > 100 µM

## O=C(CC(C(=O)c1ccsc1)c1cccs1)c1ccccc1 (stereo not given)
[2]
  TGI: > 100 µM
[3]
  TGI: > 100 µM
[4]
  TGI: > 100 µM
[5]
  TGI: > 100 µM
[6]
  TGI: > 100 µM
[7]
  TGI: > 100 µM
[8]
  TGI: > 100 µM
[9]
  TGI: > 100 µM

## Cc1cc2ncn(CC(=O)O)c2cc1C
[1]
  TGI: > 100 µM
[2]
  TGI: > 100 µM
[3]
  TGI: > 100 µM
[4]
  TGI: > 100 µM
[6]
  TGI: > 100 µM
[7]
  TGI: > 100 µM
[8]
  TGI: > 100 µM
[9]
  TGI: > 100 µM
[10]
  TGI: > 100 µM

## COc1cc2c(cc1OC)C(CCN)=NCC2
[1]
  TGI: > 69 µM
[2]
  TGI: 31.7 µM
[3]
  TGI: 33.2 µM
[4]
  TGI: 32.9 µM
[6]
  TGI: > 64.4 µM
[7]
  TGI: > 57.8 µM
[8]
  TGI: 30.8 µM
[9]
  TGI: > 100 µM
[10]
  TGI: > 100 µM

## Cc1nc2c(Cl)cc(Cl)cc2c2c1CCO2
[1]
  TGI: > 100 µM
[2]
  TGI: > 100 µM
[3]
  TGI: > 100 µM
[4]
  TGI: > 100 µM
[5]
  TGI: > 100 µM
[6]
  TGI: > 100 µM
[7]
  TGI: > 100 µM
[8]
  TGI: > 100 µM
[10]
  TGI: > 100 µM

## CC1=C[P+](c2ccccc2)(c2ccccc2)c2ccccc2O1
[1]
  TGI: > 100 µM
[2]
  TGI: > 100 µM
[3]
  TGI: 62.5 µM
[4]
  TGI: > 100 µM
[6]
  TGI: 46.2 µM
[7]
  TGI: > 100 µM
[8]
  TGI: > 100 µM
[9]
  TGI: > 100 µM
[10]
  TGI: > 100 µM

## CC1OC(NCCNCCNC2OC(C)C(O)C(O)C2O)C(O)C(O)C1O (stereo not given)
[1]
  TGI: > 100 µM
[2]
  TGI: > 100 µM
[3]
  TGI: > 100 µM
[4]
  TGI: > 100 µM
[6]
  TGI: > 100 µM
[7]
  TGI: > 100 µM
[8]
  TGI: > 100 µM
[10]
  TGI: > 100 µM

## CC1=C(C)C(=O)OC(C(C)(O)C2(O)CC3OC34C3CC(O)C56OC5C=CC(=O)C6(C)C3CCC42C)C1 (stereo not given)
[2]
  TGI: 2.45 µM
[3]
  TGI: 4.24 µM
[4]
  TGI: 15.8 µM
[5]
  TGI: 2.73 µM
[6]
  TGI: 12.9 µM
[7]
  TGI: 10.4 µM
[8]
  TGI: 7.34 µM
[9]
  TGI: 14.2 µM
[10]
  TGI: 19.9 µM

## Nc1cc(CO)cc(Nc2c3ccccc3nc3ccccc23)c1
[1]
  TGI: 35.8 µM
[2]
  TGI: 31.9 µM
[3]
  TGI: 32 µM
[4]
  TGI: 73.1 µM
[6]
  TGI: 34.9 µM
[7]
  TGI: 32.2 µM
[8]
  TGI: 28.3 µM
[9]
  TGI: 29.5 µM

## COc1ccc(C2=C(OC(C)=O)c3cccn3-c3ccc(Cl)cc3S2)cc1
[3]
  TGI: > 10 µM
[4]
  TGI: > 10 µM
[5]
  TGI: > 10 µM
[9]
  TGI: > 10 µM

## CC(C#N)(NO)C(C)(C#N)NO (stereo not given)
[1]
  TGI: > 100 µM
[3]
  TGI: > 100 µM
[4]
  TGI: > 100 µM
[5]
  TGI: > 100 µM
[6]
  TGI: > 100 µM
[7]
  TGI: > 100 µM
[8]
  TGI: > 100 µM
[9]
  TGI: > 100 µM
[10]
  TGI: > 100 µM

## C/C(Cc1ccc2c(c1)OCO2)=N\N=c1\sc2ccccc2n1C
[1]
  TGI: > 100 µM
[2]
  TGI: > 100 µM
[3]
  TGI: > 100 µM
[4]
  TGI: > 100 µM
[5]
  TGI: > 100 µM
[6]
  TGI: > 100 µM
[7]
  TGI: > 100 µM
[8]
  TGI: > 100 µM
[10]
  TGI: > 100 µM

## CCC1(O)C(=O)OCc2c1cc1n(c2=O)Cc2cc3cc4c(cc3nc2-1)OCO4 (stereo not given)
[1]
  TGI: 0.0277 µM
[3]
  TGI: 18.9 µM
[4]
  TGI: > 100 µM
[5]
  TGI: 0.396 µM
[6]
  TGI: 0.0252 µM
[7]
  TGI: 0.693 µM
[8]
  TGI: 0.183 µM
[9]
  TGI: 1.81 µM
[10]
  TGI: 2.17 µM

## CCOC(=O)/C(C(N)=O)=C(\O)C(=O)/C=C(\O)c1ccc(Cl)cc1
[1]
  TGI: 45 µM
[2]
  TGI: 39.7 µM
[3]
  TGI: 63.2 µM
[4]
  TGI: 35.8 µM
[6]
  TGI: 48.8 µM
[7]
  TGI: 54.3 µM
[8]
  TGI: 29.1 µM
[9]
  TGI: > 100 µM
[10]
  TGI: > 100 µM

## COc1ccc(N2C(=O)C3ON(Cc4ccc(CC(N)=O)cc4)C(c4c5ccccc5c(C)c5ccccc45)C3C2=O)cc1 (stereo not given)
[1]
  TGI: > 100 µM
[2]
  TGI: 77.9 µM
[3]
  TGI: > 100 µM
[4]
  TGI: 78 µM
[7]
  TGI: 83.8 µM
[8]
  TGI: > 100 µM
[9]
  TGI: > 100 µM
[10]
  TGI: > 100 µM

## Cc1cc(=O)[nH]c2cc(NC(=O)C(C)NC(=O)C(C)NC(=O)C(C)NC(=O)OC(C)(C)C)ccc12 (stereo not given)
[1]
  TGI: > 15 µM
[2]
  TGI: > 15 µM
[3]
  TGI: > 15 µM
[4]
  TGI: > 15 µM
[5]
  TGI: > 15 µM
[6]
  TGI: > 15 µM
[7]
  TGI: > 15 µM
[8]
  TGI: > 15 µM
[10]
  TGI: > 15 µM

## CN(C)CCCNc1ccnc2c([N+](=O)[O-])cccc12
[2]
  TGI: > 100 µM
[3]
  TGI: > 100 µM
[5]
  TGI: 27.1 µM
[6]
  TGI: > 100 µM
[8]
  TGI: > 100 µM
[10]
  TGI: 54.5 µM

## COc1ccc(-c2c(C#N)c(N)[nH]c(=S)c2C#N)cc1
[1]
  TGI: > 100 µM
[2]
  TGI: > 100 µM
[3]
  TGI: > 100 µM
[4]
  TGI: > 100 µM
[5]
  TGI: 72.2 µM
[6]
  TGI: > 100 µM
[7]
  TGI: > 100 µM
[8]
  TGI: > 100 µM
[10]
  TGI: > 100 µM
